Measured values as given in patent US20070009571A1, “Novel haptotactic peptides” (Hadasit Medical Research Services & Development Ltd., priority 1998, published 2007).
No end group written: not given here.

Tests used:
human fibroblasts (HF) = test: Uptake of FITC-peptides by fluorescence microscopy; type: cell-based; set-up: binding and internalization of dissolved FITC-peptide, fluorescent microscopy: dose or concentration left out as unconfirmed
Procedure: (§1) The cells examined were grown in 6-well plates on cover slips to reach near confluence. At the time of examination, the cover slips were inverted and put on a microscope slide supported by 2 thin spacers so that a thin gap (˜2 mm) was left between the cells on the coverslip and the slide. This was filled with culture medium. […] At different time points, medium was replaced with fresh medium and the fluorescence was viewed and photographed, using an Olympus fluorescent microscope system.
(§2) Accumulation of the FITC-peptide in the cytoplasm and around the nucleus was clearly observed. […] After a longer exposure of more than 1 hour or with fixed cells, accumulation of the FITC-peptide in the cytoplasm and around the nucleus was clearly observed (data not shown). In most cases, the fluorescence became concentrated in discrete cytoplasmic vesicles.

EC (BAEC) = test: Uptake of FITC-peptides by fluorescence microscopy; type: cell-based, bovine; details: 100 μg/ml, 30 min and 60 min
Procedure: as §1, §2

EC cells (BAEC) = test: FACS analysis of binding of FITC-labeled peptides; type: cell-based, bovine; details: 10 μg/ml or 100 μg/ml, medium with 0.1% albumin
Procedure: EC and HF cell monolayers were washed and then incubated with trypsin-versene. Cells were then washed with growth medium and resuspended in medium with 0.1% albumin. FITC-labeled peptide-Cβ (SEQ ID NO:1) was incubated with 5×10^5 EC cells (10 μg/ml or 100 μg/ml) or with 2.5×10^5 HF cells (100 μg/ml) in medium with 0.1% albumin. FITC-labeled peptide-CαE (SEQ ID NO:3) and Cα (SEQ ID NO:4) (10 μg/ml) was incubated with 5×10^5 EC cells in medium with 0.1% albumin. Cells were then washed with PBS and 1% albumin. Cells were resuspended in PBS and 1% albumin and then filtered through a mesh for FACS analysis, in which the FITC tluorescence was measured for each cell.
The control is without FITC-labeled peptide (background fluorescence).
In competition experiments, cells were incubated with various concentrations of unlabeled Cβ (SEQ ID NO:1) for 15 mins, an aliquot of Cβ^FITC (4 mM) was added and the sample was subjected to FACS analysis. […] The Cβ^FITC (SEQ ID NO:1) uptake experiments best fitted a linear-quadratic curve-fit.

FITC-CαE: FITC-labeled peptide CαE (SEQ ID NO:3) (RGADYSLRAVRMKIRPLVTQ; not fully specified (N-terminus); also: FITC label, position not given here)
uptake of FITC-peptide by fluoro-microscopy (human fibroblasts (HF); 10 μM, human fibroblasts): uptake | binding and internalization of dissolved FITC-peptide, fluorescent microscopy (human fibroblasts (HF); HF, 30 min and 60 min): binding and internalization | binding and internalization of dissolved FITC-peptide, fluorescent microscopy (EC (BAEC)): binding and internalization | binding/uptake of FITC-labeled peptide by FACS, in words (EC cells (BAEC)): taken up by cells
